Counter-ions that a name gives are not always drawn.

Assay [1] concerns BT474 [human breast carcinoma, overexpressing HER2 (ErbB2)]. The assay can be described thus: In vitro tumor cell proliferation assay (Cell Titer-Glo luminescent cell viability), BT474 cells. The assay is classed as cell-based. The conditions noted are these: BT-474, 72 h, 72 hours of drug exposure, Cell Titer-Glo readout, read-out: IC50, anti-proliferative activity in BT474 cells. In general terms: In ATP-based viability assays light output follows the ATP content of the culture.

Assay [2] concerns A431 cells [human epidermoid carcinoma, overexpressing HER1 (EGFR, ErbB1)]. Kind of assay: In vitro tumor cell proliferation assay (Cell Titer-Glo luminescent cell viability), A431 cells. The assay is classed as cell-based. The conditions noted are these: A-431, 72 h, 72 hours of drug exposure, Cell Titer-Glo readout, read-out: IC50, anti-proliferative activity in A431 cells.

With `COC(=O)/C=C/c1ccc2c(c1)sc1ncnc(Nc3ccc(OCc4cccc(F)c4)c(Cl)c3)c12` [Example 47, methyl (2E)-3-[4-({3-chloro-4-[(3-fluorobenzyl)oxy]phenyl}amino)[1]benzothieno[2,3-d]pyrimidin-7-yl]acrylate], the IC50 in assay [1] and in assay [2] was ≤ 5 µM in each case.
As to `Clc1cc(Nc2ncnc3sc4cc(Br)ccc4c23)ccc1OCc1ccccn1` [Example 71, 7-bromo-N-[3-chloro-4-(pyridin-2-ylmethoxy)phenyl][1]benzothieno[2,3-d]pyrimidin-4-amine], the IC50 (in general, the concentration needed to halve the response being measured) in assay [1] is ≤ 5 µM; in assay [2], ≤ 50 µM.
For `OCC(O)c1ccc2c(c1)sc1ncnc(Nc3ccc4c(cnn4Cc4cccc(F)c4)c3)c12` (stereo not drawn) [Example 115, 1-(4-{[1-(3-fluorobenzyl)-1H-indazol-5-yl]amino}[1]benzothieno [2,3-d]pyrimidin-7-yl)ethane-1,2-diol] the same measures were ≤ 0.5 µM and ≤ 5 µM.
For `OC[C@H](O)[C@@H](O)c1ccc2c(c1)sc1ncnc(Nc3ccc(OCc4cccc(F)c4)c(Cl)c3)c12` [Example 63, (1S,2S)-1-[4-({3-chloro-4-[(3-fluorobenzyl)oxy]phenyl}amino) [1]benzothieno[2,3-d]pyrimidin-7-yl]propane-1,2,3-triol] the same measures were ≤ 0.5 µM and ≤ 5 µM.
For `OC[C@@H](O)c1ccc2c(c1)sc1ncnc(Nc3ccc4c(cnn4Cc4cccc(F)c4)c3)c12` [Example 116, (1S)-1-(4-{[1-(3-fluorobenzyl)-1H-indazol-5-yl]amino}[1]benzothieno [2,3-d]pyrimidin-7-yl)ethane-1,2-diol] the same measures were ≤ 0.5 µM and ≤ 5 µM.
As for `C=Cc1ccc2c(c1)sc1ncnc(Nc3ccc4c(cnn4Cc4cccc(F)c4)c3)c12` [Example 114, N-[1-(3-fluorobenzyl)-1H-indazol-5-yl]-7-vinyl[1]benzothieno[2,3-d] pyrimidin-4-amine], the IC50 in assay [1] is ≤ 0.5 µM; in assay [2], ≤ 50 µM.
The like results for `CN1CCN(C(=O)Cc2ccc3c(c2)sc2ncnc(Nc4ccc(OCc5cccc(F)c5)c(Cl)c4)c23)CC1` [Example 32, N-{3-chloro-4-[(3-fluorobenzyl)oxy]phenyl}-7-[2-(4-methylpiperazin-1-yl)-2-oxoethyl][1]benzothieno[2,3-d] pyrimidin-4-amine] were, in that order, ≤ 0.5 µM and ≤ 5 µM.
The like results for `COCCN(C)C(=O)Cc1ccc2c(c1)sc1ncnc(Nc3ccc(OCc4ccccn4)c(Cl)c3)c12` [Example 103, 2-(4-{[3-chloro-4-(pyridin-2-ylmethoxy)phenyl]amino}[1]benzothieno[2,3-d]pyrimidin-7-yl)-N-(2-methoxyethyl)-N-methylacetamide] were, in that order, ≤ 5 µM and ≤ 50 µM.
The like results for `CS(=O)(=O)CCNC(=O)Cc1ccc2c(c1)sc1ncnc(Nc3ccc(OCc4ccccn4)c(Cl)c3)c12` [Example 102, 2-(4-{[3-chloro-4-(pyridin-2-ylmethoxy)phenyl]amino}[1]benzothieno[2,3-d]pyrimidin-7-yl)-N-[2-(methylsulfonyl)ethyl] acetamide] were, in that order, ≤ 0.5 µM and ≤ 50 µM.
For the compound `CN(C)[C@H]1CCN(C(=O)Cc2ccc3c(c2)sc2ncnc(Nc4ccc(OCc5cscn5)c(Cl)c4)c23)C1` [Example 143, N-[3-chloro-4-(1,3-thiazol-4-ylmethoxy)phenyl]-7-{2-[(3S)-3-(dimethylamino)pyrrolidin-1-yl]-2-oxoethyl}[1]benzothieno[2,3-d] pyrimidin-4-amine], the IC50 in assay [1] is ≤ 0.5 µM; in assay [2] it was ≤ 5 µM.
For `CCOC(=O)C(C(=O)OCC)c1ccc2c(c1)sc1ncnc(Nc3ccc(OCc4cccc(F)c4)c(Cl)c3)c12` [Example 45, 2-{4-[3-Chloro-4-(3-fluoro-benzyloxy)-phenylamino]-benzo[4,5]thieno[2,3-d]pyrimidin-7-yl}-malonic acid diethyl ester] the same measures were ≤ 5 µM and ≤ 50 µM.
For `CCOC(=O)Cc1ccc2c(c1)sc1ncnc(Nc3ccc(OCc4cccc(F)c4)c(Cl)c3)c12` [Example 1, ethyl[4-({3-chloro-4-[(3-fluorobenzyl)oxy]phenyl}amino)[1]benzothieno[2,3-d]pyrimidin-7-yl]acetate] the same measures were ≤ 5 µM and ≤ 50 µM.
The like results for `Clc1cc(Nc2ncnc3sc4cc(CCN5CCOCC5)ccc4c23)ccc1OCc1ccccn1` [Example 84, N-[3-chloro-4-(pyridin-2-ylmethoxy)phenyl]-7-(2-morpholin-4-ylethyl)[1]benzothieno[2,3-d] pyrimidin-4-amine] were, in that order, ≤ 0.5 µM and ≤ 50 µM.
Take `OCC(CO)Oc1ccc2c(c1)sc1ncnc(Nc3ccc(OCc4cccc(F)c4)c(Cl)c3)c12` [Example 43, 2-{[4-({3-chloro-4-[(3-fluorobenzyl)oxy]phenyl}amino) [1]benzothieno[2,3-d]pyrimidin-7-yl]oxy}propane-1,3-diol trifluoroacetate (salt)]: the IC50 in assay [1] was ≤ 0.5 µM; in assay [2] it was ≤ 50 µM.
`O=C(O)Cc1ccc2c(c1)sc1ncnc(Nc3ccc4c(cnn4Cc4cccc(F)c4)c3)c12` [Example 121, (4-{[1-(3-fluorobenzyl)-1H-indazol-5-yl]amino}[1]benzothieno[2,3-d]pyrimidin-7-yl)acetic acid]: the IC50 was ≤ 5 µM in assay [1] and ≤ 50 µM in assay [2].
On to `OC[C@@H](O)COc1ccc2c(c1)sc1ncnc(Nc3ccc(OCc4ccccn4)c(Cl)c3)c12` [Example 111, (2R)-3-[(4-{[3-chloro-4-(pyridin-2-ylmethoxy)phenyl]amino}[1]benzothieno[2,3-d]pyrimidin-7-yl)oxy]propane-1,2-diol], for which the IC50 in assay [1] is ≤ 0.5 µM; in assay [2], ≤ 50 µM.
The like results for `O=C(Cc1ccc2c(c1)sc1ncnc(Nc3ccc(OCc4ccccn4)c(Cl)c3)c12)NCCOCCO` [Example 98, 2-(4-{[3-chloro-4-(pyridin-2-ylmethoxy)phenyl]amino}[1]benzothieno[2,3-d]pyrimidin-7-yl)-N-[2-(2-hydroxyethoxy)ethyl] acetamide] were, in that order, ≤ 5 µM and ≤ 50 µM.
For `Fc1cccc(Cn2ncc3cc(Nc4ncnc5sc6cc(N7CCOCC7)ccc6c45)ccc32)c1` [Example 120, N-[1-(3-fluorobenzyl)-1H-indazol-5-yl]-7-morpholin-4-yl[1] benzothieno[2,3-d]pyrimidin-4-amine] the same measures were ≤ 0.5 µM and ≤ 50 µM.
For `Fc1cccc(COc2ccc(Nc3ncnc4sc5cc(Br)ccc5c34)cc2Cl)c1` [Example 13, 7-bromo-N-{3-chloro-4-[(3-fluorobenzyl)oxy]phenyl}[1]benzothieno[2,3-d]pyrimidin-4-amine] the same measures were ≤ 5 µM and ≤ 50 µM.
In the case of `OCCNCCc1ccc2c(c1)sc1ncnc(Nc3ccc(OCc4ccccn4)c(Cl)c3)c12` [Example 88, 2-{[2-(4-{[3-chloro-4-(pyridin-2-ylmethoxy)phenyl]amino}[1]benzothieno[2,3-d]pyrimidin-7-yl)ethyl]amino}ethanol trifluoroacetate (salt)], the IC50 in assay [1] was ≤ 0.5 µM; in assay [2], ≤ 50 µM.
The like results for `COC[C@@H]1CCCN1C(=O)Cc1ccc2c(c1)sc1ncnc(Nc3ccc(OCc4ccccn4)c(Cl)c3)c12` [Example 107, N-[3-chloro-4-(pyridin-2-ylmethoxy)phenyl]-7-{2-[2-(methoxymethyl)pyrrolidin-1-yl]-2-oxoethyl}[1]benzothieno[2,3-d] pyrimidin-4-amine] were, in that order, ≤ 5 µM and ≤ 5 µM.
For `OC[C@@H](O)c1ccc2c(c1)sc1ncnc(Nc3ccc(OCc4cccc(F)c4)c(Cl)c3)c12` [Example 26, (1S)-1-[4-({3-chloro-4-[(3-fluorobenzyl)oxy]phenyl}amino)[1]benzothieno[2,3-d]pyrimidin-7-yl]ethane-1,2-diol] the same measures were ≤ 0.5 µM and ≤ 5 µM.
On to `COCCCNc1ccc2c(c1)sc1ncnc(Nc3ccc(OCc4ccccn4)c(Cl)c3)c12` [Example 79, N4-[3-chloro-4-(pyridin-2-ylmethoxy)phenyl]-N7-(3-methoxypropyl)[1]benzothieno [2,3-d]pyrimidine-4,7-diamine trifluoroacetate], for which the IC50 is ≤ 5 µM in assay [1] and ≤ 50 µM in assay [2].
`COCCN1CCN(CCc2ccc3c(c2)sc2ncnc(Nc4ccc(OCc5cccc(F)c5)c(Cl)c4)c23)CC1` [Example 12, N-{3-chloro-4-[(3-fluorobenzyl)oxy]phenyl}-7-{2-[4-(2-methoxyethyl)piperazin-1-yl]ethyl}[1]benzothieno [2,3-d]pyrimidin-4-amine]: the IC50 in assay [1] was ≤ 0.5 µM; in assay [2], ≤ 5 µM.
For `O=C(Cc1ccc2c(c1)sc1ncnc(Nc3ccc(OCc4cscn4)c(Cl)c3)c12)NN1CCOCC1` [Example 144, 2-(4-{[3-chloro-4-(1,3-thiazol-4-ylmethoxy)phenyl]amino}[1]benzothieno[2,3-d]pyrimidin-7-yl)-N-morpholin-4-ylacetamide] the same measures were ≤ 5 µM and ≤ 50 µM.
Regarding `[O-][S+]1CCN(CCc2ccc3c(c2)sc2ncnc(Nc4ccc(OCc5cccc(F)c5)c(Cl)c4)c23)CC1` [Example 19, N-{3-chloro-4-[(3-fluorobenzyl)oxy]phenyl}-7-[2-(1-oxidothiomorpholin-4-yl)ethyl][1] benzothieno[2,3-d]pyrimidin-4-amine], the results for the IC50 in assay [1] and in assay [2] were ≤ 5 µM and ≤ 50 µM, respectively.
The like results for `OCC(O)c1ccc2c(c1)sc1ncnc(Nc3ccc(OCc4ccccn4)c(Cl)c3)c12` (racemic) [Example 73, 1-(4-{[3-chloro-4-(pyridin-2-ylmethoxy)phenyl]amino}[1]benzothieno[2,3-d]pyrimidin-7-yl)ethane-1,2-diol] were, in that order, ≤ 0.5 µM and ≤ 5 µM.
